Molecular target: T1, CDK2 (Homo sapiens, UniProt P24941)
T1 construct: endogenous in cells; host or cells: OVCAR3 cells
Test: Phospho-RB measurement in OVCAR3 cells (HTRF phospho-RB cellular kit)
Type: cell-based
Conditions: inhibition of RB phosphorylation at S807/811 (HTRF, TR-FRET ratio 665/620), 24 h compound treatment, 0.3 to 10,000 nM
Summary of the method: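 IC50 came from a four-parameter logistic fit of the DMSO-normalized TR-FRET ratio (665/620 nm). That ratio reflects RB phosphorylation at S807/811, read with an HTRF antibody pair 4 h after adding lysate at room temperature.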

Row | Compound | IC50 [nM]
1 | CC(C)Oc1cccc2c1CN(S(=O)(=O)Nc1cccc(-c3nc(C(C)(C)C)sc3-c3ccnc(NC4CC5(C4)CS(=O)(=O)C5)n3)c1F)C2 [Example 226, N-(3-(2-(tert-butyl)-5-(2-((2,2-dioxido-2-thiaspiro[3.3]heptan-6-yl)amino)-pyrimidin-4-yl)thiazol-4-yl)~2~fluoro-phenyl)-4-isopropoxyiso-indoline-2-sulfonamide] | 527
2 | CC(C)(C)c1nc(-c2cccc(NS(=O)(=O)N3Cc4cccc(-c5cccc(C#N)c5)c4C3)c2F)c(-c2ccnc(NC3CCN(S(C)(=O)=O)CC3)n2)s1 [Example 227, N-(3-(2-(tert-butyl)-5-(2-((1-(methylsulfonyl)-piperidin-4-yl)amino)-pyrimidin-4-yl)thiazol-4-yl)-2-fluoro-phenyl)-4-(3-cyanophenyl)-isoindoline-2-sulfonamide] | 517
3 | CC(C)(C)c1nc(-c2cccc(NS(=O)(=O)N3Cc4cccc(C5CCCCC5)c4C3)c2F)c(-c2ccnc(NC3CCN(S(C)(=O)=O)CC3)n2)s1 [Example 228, N-(3-(2-(tert-butyl)-5-(2-((1-(methylsulfonyl)-piperidin-4-yl)amino)-pyrimidin-4-yl)thiazol-4-yl)-2-fluoro-phenyl)-4-cyclohexyliso-indoline-2-sulfonamide] | 1510
4 | CC(O)c1cccc2c1CCN2S(=O)(=O)Nc1cccc(-c2nc(C(C)(C)C)sc2-c2ccnc(NC3CC4(C3)CS(=O)(=O)C4)n2)c1F (centres unmarked) [Example 229, N-(3-(2-(tert-butyl)-5-(2-((2,2-dioxido-2-thiaspiro[3.3]heptan-6-yl)amino)-pyrimidin-4-yl)thiazol-4-yl)-2-fluoro-phenyl)-4-(1-hydroxyethyl)-indoline-1-sulfonamide] | 145
5 | CC(C)(C)c1nc(-c2cccc(NS(=O)(=O)N3CCc4c3cccc4C(C)(C)O)c2F)c(-c2ccnc(NC3CC4(C3)CS(=O)(=O)C4)n2)s1 [Example 230, N-(3-(2-(tert-butyl)-5-(2-((2,2-dioxido-2-thiaspiro[3.3]heptan-6-yl)amino)-pyrimidin-4-yl)thiazol-4-yl)~2-fluoro-phenyl)-4-(2-hydroxypropan-2-yl)-indoline-1-sulfonamide] | 354
6 | CC(C)(C)c1nc(-c2cccc(NS(=O)(=O)N3Cc4ccc(CO)cc4C3)c2F)c(-c2ccnc(NC3CC4(C3)CS(=O)(=O)C4)n2)s1 [Example 231, N-(3-(2-(tert-butyl)-5-(2-((2,2-dioxido-2-thiaspiro[3.3]heptan-6-yl)amino)-pyrimidin-4-yl)thiazol-4-yl)-2-fluorophenyl)-5-(hydroxymethyl)-isoindoline-2-sulfonamide] | 77.4
7 | CC(C)(C)c1nc(-c2cccc(NS(=O)(=O)N3Cc4cccc(Cc5ccccc5)c4C3)c2F)c(-c2ccnc(NC3CC4(C3)CS(=O)(=O)C4)n2)s1 [Example 232, 4-benzyl-N-(3-(2-(tert-butyl)-5-(2-((2,2-dioxido-2-thiaspiro[3.3]heptan-6-yl)amino)-pyrimidin-4-yl)thiazol-4-yl)-2-fluorophenyl)-isoindoline-2-sulfonamide] | 939
8 | COCCN1CCN(c2ccc(Nc3nccc(-c4sc(C(C)(C)C)nc4-c4cccc(NS(=O)(=O)N5CCc6ccc(C#N)cc65)c4F)n3)cc2)CC1 [Example 233, N-(3-(2-(tert-butyl)-5-(2-((4-(4-(2-methoxy-ethyl)piperazin-1-yl)phenyl)-amino)-pyrimidin-4-yl)thiazol-4-yl)-2-fluorophenyl)-6-cyanoindoline-1-sulfonamide] | 765
9 | COCCOCCN1CCN(c2ccc(Nc3nccc(-c4sc(C(C)(C)C)nc4-c4cccc(NS(=O)(=O)N5CCc6ccc(C#N)cc65)c4F)n3)cc2)CC1 [Example 234, N-(3-(2-(tert-butyl)-5-(2-((4-(4-(2-(2-methoxy-ethoxy)ethyl)piperazin-1-yl)phenyl)amino)-pyrimidin-4-yl)thiazol-4-yl)-2-fluorophenyl)-6-cyanoindoline-1-sulfonamide] | 1200
10 | CC(C)(C)OC(=O)N1CCN(c2ccc(Nc3nccc(-c4sc(C(C)(C)C)nc4-c4cccc(NS(=O)(=O)N5CCc6ccc(C#N)cc65)c4F)n3)cc2)CC1 [Example 235, tert-butyl 4-(4-((4-(2-(tert-butyl)-4-(3-((6-cyanoindoline)-1-sulfonamido)-2-fluorophenyl)thiazol-5-yl)pyrimidin-2-yl)amino)phenyl) piperazine-1-carboxylate] | 3390
11 | CC1(c2nc(-c3cccc(NS(=O)(=O)N4CCc5ccc(C#N)cc54)c3F)c(-c3ccnc(Nc4ccc(N5CCNCC5)cc4)n3)s2)CCOCC1 [Example 236, 6-cyano-N-(2-fluoro-3-(2-(4-methyltetrahydro-2H-pyran-4-yl)-5-(2-((4-(piperazin-1-yl)-phenyl)amino)-pyrimidin-4-yl)thiazol-4-yl)-phenyl)indoline-1-sulfonamide] | 477
12 | CC(C)(C)c1nc(-c2cccc(NS(=O)(=O)N3Cc4cccc(OCCO)c4C3)c2F)c(-c2ccnc(NC3CCN(S(C)(=O)=O)CC3)n2)s1 [Example 237, N-(3-(2-(tert-butyl)-5-(2-((1-(methylsulfonyl)-piperidin-4-yl)amino)-pyrimidin-4-yl)thiazol-4-yl)-2-fluoro-phenyl)-4-(2-hydroxyethoxy)-isoindoline-2-sulfonamide] | 297
13 | CC(C)(C)c1nc(-c2cccc(NS(=O)(=O)N3CCc4c(CC#N)cccc43)c2F)c(-c2ccnc(NC3CC4(C3)CS(=O)(=O)C4)n2)s1 [Example 238, N-(3-(2-(tert-butyl)-5-(2-((2,2-dioxido-2-thiaspiro[3.3]heptan-6-yl)amino)-pyrimidin-4-yl)thiazol-4-yl)-2-fluoro-phenyl)-4-(cyanomethyl) indoline-1-sulfonamide] | 295
14 | CC(C)(C)c1nc(-c2cccc(NS(=O)(=O)N3Cc4ccnc(O)c4C3)c2F)c(-c2ccnc(NC3CCN(S(C)(=O)=O)CC3)n2)s1 [Example 239, N-(3-(2-(tert-butyl)-5-(2-((1-(methylsulfonyl)-piperidin-4-yl)amino)-pyrimidin-4-yl)thiazol-4-yl)-2-fluoro-phenyl)-4-hydroxy-1,3-dihydro-2H-pyrrolo[3,4-c] pyridine-2-sulfonamide] | 4690
15 | CC1(c2nc(-c3cccc(NS(=O)(=O)N4CCc5ccc(C#N)cc54)c3F)c(-c3ccnc(NC4CC5CS(=O)(=O)CC5C4)n3)s2)CCOCC1 (centres unmarked) [Example 240, 6-cyano-N-(3-(5-(2-((2,2-dioxidohexa-hydro-1H-cyclopenta[c]thiophen-5-yl)amino)-pyrimidin-4-yl)-2-(4-methyl-tetrahydro-2H-pyran-4-yl)thiazol-4-yl)-2-fluorophenyl)-indoline-1-sulfonamide] | 38.2
16 | CN(C)Cc1cccc(Nc2nccc(-c3sc(C(C)(C)C)nc3-c3cccc(NS(=O)(=O)N4CCc5ccc(C#N)cc54)c3F)n2)c1 [Example 241, N-(3-(2-(tert-butyl)-5-(2-((3-((dimethylamino)-methyl)phenyl)-amino)pyrimidin-4-yl)thiazol-4-yl)-2-fluorophenyl)-6-cyanoindoline-1-sulfonamide] | 521
17 | CC(C)(C)c1nc(-c2cccc(NS(=O)(=O)N3CCc4ccc(C#N)cc43)c2F)c(-c2ccnc(Nc3ccc(S(C)(=O)=O)cc3)n2)s1 [Example 242, N-(3-(2-(tert-butyl)-5-(2-((4-(methylsulfonyl)-phenyl)amino)-pyrimidin-4-yl)thiazol-4-yl)-2-fluoro-phenyl)-6-cyanoindoline-1-sulfonamide] | 302
18 | CC(C)(C)c1nc(-c2cccc(NS(=O)(=O)N3Cc4ccc(C(F)(F)F)cc4C3)c2F)c(-c2ccnc(NC3CCN(S(C)(=O)=O)CC3)n2)s1 [Example 243, N-(3-(2-(tert-butyl)-5-(2-((1-(methylsulfonyl)-piperidin-4-yl)amino)-pyrimidin-4-yl)thiazol-4-yl)-2-fluoro-phenyl)-5-(trifluoromethyl)-isoindoline-2-sulfonamide] | 1200
19 | CC(C)(C)c1nc(-c2cccc(NS(=O)(=O)N3Cc4cccc(OCCN)c4C3)c2F)c(-c2ccnc(NC3CCN(S(C)(=O)=O)CC3)n2)s1 [Example 244, 4-(2-aminoethoxy)-N-(3-(2-(tert-butyl)-5-(2-((1-(methylsulfonyl)piperidin-4-yl)amino)-pyrimidin-4-yl)thiazol-4-yl)-2-fluorophenyl)-isoindoline-2-sulfonamide] | 1450
20 | CC(C)(C)c1nc(-c2cccc(NS(=O)(=O)N3CCc4c(CN5CCOCC5)cccc43)c2F)c(-c2ccnc(NC3CCN(S(C)(=O)=O)CC3)n2)s1 [Example 245, N-(3-(2-(tert-butyl)-5-(2-((1-(methylsulfonyl)piperidin-4-yl)amino)-pyrimidin-4-yl)thiazol-4-yl)-2-fluorophenyl)-4-(morpholinomethyl)-indoline-1-sulfonamide] | 338
21 | CC(C)(C)c1nc(-c2cccc(NS(=O)(=O)N3Cc4ccc(CC#N)cc4C3)c2F)c(-c2ccnc(NC3CC4(C3)CS(=O)(=O)C4)n2)s1 [Example 246, N-(3-(2-(tert-butyl)-5-(2-((2,2-dioxido-2-thiaspiro[3.3]heptan-6-yl)amino)-pyrimidin-4-yl)thiazol-4-yl)-2-fluoro-phenyl)-5-(cyanomethyl)-isoindoline-2-sulfonamide] | 334
22 | CC(C)(C)c1nc(-c2cccc(NS(=O)(=O)N3Cc4cccc(OCC#N)c4C3)c2F)c(-c2ccnc(NC3CCN(S(C)(=O)=O)CC3)n2)s1 [Example 247, N-(3-(2-(tert-butyl)-5-(2-((1-(methylsulfonyl)-piperidin-4-yl)amino)-pyrimidin-4-yl)thiazol-4-yl)-2-fluoro-phenyl)-4-(cyanomethoxy)-isoindoline-2-sulfonamide] | 117
23 | CN(C)Cc1ccc(Nc2nccc(-c3sc(C(C)(C)C)nc3-c3cccc(NS(=O)(=O)N4CCc5ccc(C#N)cc54)c3F)n2)cc1 [Example 248, N-(3-(2-(tert-butyl)~5-(2-((4-((dimethylamino)-methyl)phenyl)-amino)pyrimidin-4-yl)thiazol-4-yl)-2-fluorophenyl)-6-cyanoindoline-1-sulfonamide] | 405

— US20260274833A1 (NiKang Therapeutics, Inc., priority 2022, published 2026)
